{
  "source": "patent EP4667486A1",
  "about": "“COMPOSITION COMPRISING CD38 OR FRAGMENT THEREOF FOR TREATING AUTOIMMUNE DISEASES” (DNT Co., Ltd., priority 2023, dated 2024)",
  "key": {"DCs": {"test_system": "DCs", "experiment": "LPS-induced TNF-α secretion from bone marrow-derived dendritic cells (ELISA), sCD38 functional domain screening", "type": "cell-based, mouse", "conditions": "DCs from bone marrow cells treated with GM-CSF, FIG. 1-3", "procedure": "To isolate bone marrow cells, mice (Damool Science, Korea) were anesthetized and sacrificed, and the femur and tibia were removed aseptically and the tissue attached to the bones was removed. After cutting off both ends of the bones, bone marrow was collected by slowly injecting 5-10 mL of a cell culture medium or a solution used for bone marrow separation into the medullary cavity at one end using a syringe needle, which was then filtered through a 70 µm cell strainer (SPL Life Sciences, Korea) and centrifuged to collect bone marrow cells. After treating with 1 mL of an RBC lysis solution (Merck, Germany) for 2-5 minutes to remove red blood cells, 10 mL of Dulbecco's phosphate-buffered saline (DPBS) (GIBCO, USA) was added, and bone marrow cells were collected through centrifugation. After washing the bone marrow cells 3 times with DPBS, 10 mL of a BMDC culture medium (RPMI-1640 (Welgene, Korea) containing 10% FBS (GIBCO, USA) and 10 ng/mL GM-CSF (Peprotech, USA)) was added to disperse the bone marrow cells into single cells. 1×10^5 bone marrow cells were dispensed into a 24-well culture dish and differentiated in a 37 °C incubator maintained at 5% CO2.\nTo screen the functional domain of sCD38 that induces dendritic cell tolerance, the domain of sCD38 was largely divided into three parts (CD38 amino acid sequence; 42-140 (1), 130-220 (2), 210-304 (3)). Using the three parts of sCD38, TNF-α secretion was observed as one of the indicators of the degree of DC tolerance induction.\nAn E. coli expression system was used to express the sCD38 domain protein. The sCD38 domain protein expressed in E. coli was purified using a purification system and used for screening. For fast and easy screening of the domain protein of sCD38, an ELISA method that measures the pro-inflammatory cytokine TNF-α was adopted. When the DCs obtained by treating the bone marrow cells with GM-CSF are treated with LPS, the DCs differentiate into mature DCs and the secretion of TNF-α is increased. It was confirmed that TNF-α secretion from DCs induced by LPS was reduced by the treatment with sCD38 (SEQ ID NO: 33). As a result of treating with sCD38 functional domain, (1) 42-140, (2) 130-220, and (3) 210-304, it was confirmed that the TNF-α secretion from dendritic cells induced by LPS (Merck, Germany) was reduced by the sCD38 functional domain (3).\nAfter the first screening of the sCE38 functional domain that induces dendritic cell tolerance, the selected domain was divided into two parts (C-term 226-265 and C-term 266-304 of CD38 210-304 (3), (SEQ ID NO: 26)). After the domain was divided into two parts, TNF-α secretion was observed as one of the indicators of the degree of DC tolerance induction.\nAn E. coli expression system was used to express the divided two parts of sCD38. As a result of treating with the divided two parts (C-term 226-265, C-term 266-304) of the sCD38 functional domain (3), it was confirmed that the TNF-α secretion from dendritic cells induced by LPS was reduced by the sCD38 functional domain C-term 266-304.\nAfter the second screening of the sCE38 functional domains that induce dendritic cell tolerance, the screened domain was divided into seven parts and peptide synthesis was performed (peptide 1: 233-247 of sCD38 226-304, peptide 2: 251-265, peptide 3: 269-283, peptide 4: 266-304 (SEQ ID NO: 26), peptide 5 (M19): 286-304 (SEQ ID NO: 21), peptide 6 (M16): 287-302 (SEQ ID NO: 11), peptide 7 (M14): 287-300 (SEQ ID NO: 4)). […]"}, "human dendritic cells": {"test_system": "human dendritic cells", "experiment": "LPS-induced TNF-α secretion from human monocyte-derived dendritic cells", "type": "cell-based", "conditions": "FIG. 9", "procedure": "To isolate human monocytes, 20 mL of whole blood was withdrawn and mix with an equal volume of PBS. After adding 15 mL of Ficoll (GE HealthCare, USA) to a 50-mL tube, 15 mL of diluted whole blood was slowly added onto the Ficoll. Likewise, an equal amount of the remaining whole blood was dispensed slowly into a 50-mL tube containing 15 mL of Ficoll. Centrifugation was performed at 1000 x g for 20 minutes in a centrifuge at room temperature. After carefully removing plasma from the isolated whole blood, a portion including peripheral blood mononuclear cells (PBMCs) was transferred to a new 50-mL tube. After adding 10 mL of PBS to the tube containing PBMCs and mixing gently, centrifugation was performed at 400 x g for 10 minutes at room temperature. After carefully removing the supernatant, 1 mL of an RPMI 1640 medium containing 10% FBS was added to the PBMC pellets, and the cells were counted. After adding an RPMI-1640 medium (Welgene, Korea) containing 10% FBS to 1x10^6 cells per mL, 100 ng/mL GM-CSF (Peprotech, USA) and 50 ng/mL IL-4 (Peprotech, USA) were mixed. After adding 500 µL of PMBC to each well of a 24-well plate, the cells were differentiated in an incubator at 37 °C maintained at 5% CO2 for 5 days.\nIt was confirmed whether the sCD38 functional domain that induces tolerance of dendritic cells is also effective in human dendritic cells. To identify the functional domain of human sCD38, the C-terminal portion of human CD38 (H18 (283-300), H13 (284-296) (SEQ ID NO: 2)) were prepared into peptides. Human sCD38 and M19 peptides were treated as positive controls, and TNF-α secretion was observed using H18 and H13 peptides as one of the indicators of the degree of DC tolerance induction.\nIt was confirmed that the TNF-α secretion induced by LPS from human dendritic cells was reduced by the sCD38 functional domain peptides when the human sCD38 and M19 peptides were treated as positive controls and they were treated with the H18 and H13 peptides."}, "[1]": {"test_system": "ulcerative colitis animal model", "experiment": "DSS-induced animal model of ulcerative colitis, colon length", "type": "in vivo, C57BL/6 mice", "conditions": "for colon length: 20 µg intrarectally daily for 2 weeks, DSS 6-7 days, FIG. 8", "procedure": "A control ulcerative colitis animal model was established by allowing C57BL/6 mice (Damool Science, Korea) to drink drinking water containing 2-3% dextran sulfate sodium (DSS) (MP Biomedicals, China) for 6-7 days. Administration of DSS increases the level of inflammatory cytokines and causes colitis in mice. The experimental animal model was treated with DSS for 6-7 days, and 20 µg of the sCD38 functional domain (M19 peptide (Peptron, Korea)) was injected intrarectally daily for 2 weeks. Then, it was determined whether the progression of ulcerative colitis was reduced. LiCl (Merck, Germany) was used instead of the sCD38 functional domain (M19 peptide) for a positive control group.\nIn contrast, it was confirmed that the colon length of the experimental animal model treated with the sCD38 functional domain (M19 peptide) was not shortened."}, "[2]": {"test_system": "animal model of rheumatoid arthritis", "experiment": "Collagen-induced arthritis (CIA) animal model of rheumatoid arthritis, hind ankle thickness", "type": "in vivo, DBA/1 mice", "conditions": "summary statement referring to Example 8", "procedure": "For induction of collagen-induced arthritis (CIA), 8-9 week-old male DBA/1 mice (Central Lab. Animal, Korea) were immunized with bovine type II collagen (CII) (Central Lab. Animal, Korea). CII was dissolved in 0.05 N acetic acid at a concentration of 2 mg/mL and emulsified at a ratio of 1:1 with complete Freund's adjuvant (CFA) (Central Lab. Animal, Korea) at 4 °C. For the first immunization, 150 µL of a mixture of 100 µg CII and 100 µg CFA was injected intradermally into the tail of the mice. Three weeks later, before booster injection, the sCD38 functional domain (sCD38-3) (226-304) or saline was injected into the ankle joint of the mice, and an equal volume of CII, emulsified at a ratio of 1:1 with incomplete Freund's adjuvant (IFA) (Merck, Germany), was injected into the tail (booster injection). The sCD38 functional domain (sCD38-3) was injected three more times, once a week. After 4 weeks of the booster injection, the mice were euthanized for analysis. After the booster injection, the thickness of the hind ankle of the animal model was measured using a vernier caliper."}, "[3]": {"test_system": "autoimmune uveitis animal model", "experiment": "Animal model of autoimmune uveitis (IRBP/PTX-induced), severity", "type": "in vivo, C57BL/6 mice", "conditions": "injected into the eye twice a week, versus uninjected uveitis control; FIG. 4", "procedure": "Autoimmune uveitis was induced by […] retinoid-binding protein (IRBP) (Peptron, Korea) into the hind limb muscles of C57BL/6 mice (Damool Science, Korea) and intraperitoneal injection of pertussis toxin (PTX) (List Lab, USA). After 10 to 14 days, the presence or absence of autoimmune uveitis was confirmed in the eyes of the mice. The functional domain of sCD38 (226-304) was injected into the eye of the animal model that developed autoimmune uveitis twice a week to determine the progression of autoimmune uveitis. An autoimmune uveitis animal model to which the functional domain of sCD38 (226-304) was not injected was used as a control group, and animals to which the functional domain of sCD38 (226-304) was injected were used as a test group. The severity of autoimmune uveitis was measured for the experimental animals."}},
  "data": [
    {"sequence": "RFLQCVKNPEHPSC (REGION 1..14: note = 14 mer (Mouse, Rat or Horse)) [M14, synthesized peptide 287-300 of mouse sCD38]", "values": [
      {"measurement": "TNF-α secretion from dendritic cells induced by LPS", "setting": "DCs", "result": "reduces"}
    ]},
    {"sequence": "RFLQCVKNPEHPSCRL (REGION 1..16: note = 16 mer (Mouse)) [M16, synthesized peptide 287-302 of mouse sCD38]", "values": [
      {"measurement": "TNF-α secretion from dendritic cells induced by LPS", "setting": "DCs", "result": "reduces"}
    ]},
    {"sequence": "KFLQCVKNPEDSSCTSEI (REGION 1..18: note = 18 mer (Human or Chimpaanze)) [H18, domain peptide 283-300 of human CD38]", "values": [
      {"measurement": "TNF-α secretion from dendritic cells induced by LPS", "setting": "DCs", "result": "reduced"},
      {"measurement": "TNF-α secretion induced by LPS from human dendritic cells", "setting": "human dendritic cells", "result": "reduces"}
    ]},
    {"sequence": "ARFLQCVKNPEHPSCRLNT (REGION 1..19: note = 19 mer (Mouse)) [M19, synthesized peptide 286-304 of mouse sCD38]", "values": [
      {"measurement": "TNF-α secretion from dendritic cells induced by LPS", "setting": "DCs", "result": "reduced"},
      {"measurement": "TNF-α secretion induced by LPS from human dendritic cells", "setting": "human dendritic cells", "result": "reduced"},
      {"measurement": "colon length", "setting": "[1]", "result": "prevents shortening of the colon"},
      {"measurement": "colon length", "setting": "[1]; listed as M19 peptide", "result": "not shortened"},
      {"measurement": "progression of ulcerative colitis", "setting": "[1]; summary statement referring to Example 9", "result": "reduces"}
    ]},
    {"sequence": "LKMIVQKRNMIFACVDNYRPARFLQCVKNPEHPSCRLNT (REGION 1..39: note = 39 mer (Mouse)) [peptide 4, synthesized peptide 266-304 of mouse sCD38]", "values": [
      {"measurement": "TNF-α secretion from dendritic cells induced by LPS", "setting": "DCs", "result": "reduced"},
      {"measurement": "rheumatoid arthritis", "setting": "[2]", "result": "reduces"},
      {"measurement": "progression of autoimmune uveitis", "setting": "[3]", "result": "reduces"}
    ]},
    {"sequence": "FLQCVKNPEDSSC (REGION 1..13: note = 13 mer (Human or Chimpaanze)) [H13, peptide 284-296 of human CD38]", "values": [
      {"measurement": "TNF-α secretion induced by LPS from human dendritic cells", "setting": "human dendritic cells", "result": "reduces"}
    ]}
  ]
}
